# According to paper PMC8538004, “Identification of a Novel Neuropeptide S Receptor Antagonist Scaffold Based on the SHA-68 Core” (Pharmaceuticals, 2021):
# Tests used:
# [1] = test system: NPSR; design: method as in PMID 24964000, PMID 20615693, PMID 18337476, PMID 24171469, PMID 20510609; conditions: Figure 1, known NPSR antagonists; cited from earlier work
# [2] = biological target: T1, human NPSR-107I (Homo sapiens, UniProt Q6W5P4, N107I); assay: Ca+2 mobilization assay (apparent Ke against NPS); type: cell-based; conditions: for Kb: Calcium Mobilization, CHO-Gα16-hNPSR-107I cells, shift of NPS EC50; for Loss of antagonist activity compared to SHA: compared with SHA-66 (Ke = 10 nM); for NPSR antagonist activity in words: calcium mobilization, SAR discussion
# T1 construct: expressed in transfected cells
# T1 sequence (Q6W5P4 1-371 N107I): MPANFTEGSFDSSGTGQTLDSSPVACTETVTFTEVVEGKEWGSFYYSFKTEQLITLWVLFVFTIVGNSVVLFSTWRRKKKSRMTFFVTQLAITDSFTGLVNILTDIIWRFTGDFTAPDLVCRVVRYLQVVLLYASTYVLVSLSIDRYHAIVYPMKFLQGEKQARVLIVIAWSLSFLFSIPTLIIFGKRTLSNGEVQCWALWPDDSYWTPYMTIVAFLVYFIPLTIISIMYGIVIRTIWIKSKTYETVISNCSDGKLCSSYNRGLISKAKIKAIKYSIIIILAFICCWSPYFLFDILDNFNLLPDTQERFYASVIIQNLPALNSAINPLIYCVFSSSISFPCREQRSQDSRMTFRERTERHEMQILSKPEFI
# Experimental: A stable cell line overexpressing the human NPSR-107I was created in CHO-Gαq16 cells (RD-HGA16, Molecular Devices), as previously described. Briefly, CHO-Gαq16 cells were transfected with pcDNA 3.1 human NPSR-107I using Lipofectamine reagent. Transfected cells were plated into 10 cm^2 dishes 24 h post-transfection and were selected using Geneticin. After 2 weeks, individual clones were selected, grown to confluence, and screened in a functional 96-well calcium mobilization assay that measured the response to NPS (100 nM final). […] A final working clone was chosen for all subsequent studies based on NPS potency and the calcium mobilization signal window. CHO-Gα16-hNPSR-107I cells were cultured in Ham’s F12 media supplemented with 10% FBS, 100 units/mL penicillin, 100 μg/mL streptomycin, 200 μg/mL hygromycin, and 400 μg/mL geneticin. Media were purchased from HyClone (GE Life Sciences); FBS, penicillin/streptomycin, hygromycin, and geneticin were purchased from Invitrogen (Thermo Scientific). The day before the assay, cells were plated into 96-well black-walled assay plates at 25,000–40,000 cells/well in growth medium without selection antibiotics. Cells were incubated overnight at 37 °C, 5% CO2. The FLIPR Calcium 5 assay kit (Molecular Devices) was used according to the manufacturer’s instructions with minor modifications. Briefly, reconstituted dye was diluted in pre-warmed assay buffer (HBSS, 20 mM HEPES, 2.5 mM probenecid, pH 7.4 at 37 °C). Growth medium was removed, and the cells were gently washed with assay buffer. Calcium 5 dye was added to the cells and the plate was incubated for 45 min at 37 °C, 5% CO2. A single concentration of test compound and 10-point concentration–response curves of NPS (ranging from 100 nM to 1 pM) were prepared at 10× the desired final concentration. Cells were pretreated with the test compound or vehicle in a final concentration of 0.25% BSA/1% DMSO for 15 min at 37 °C. Assay plates were read with a FlexStation II instrument (excitation at 485 nm, detection at 525 nm, Molecular Devices). Calcium-mediated changes in fluorescence were monitored every 1.5 s over a 90 s time period. NPS was added during the read and the maximum kinetic […] (SoftMax [Max-Min], Molecular Devices) in relative fluorescent units (RFU) was measured. Data were fitted to a three-parameter logistic curve to generate EC50 values (GraphPad Prism 6.0). Antagonism was quantified by measuring the ratio of equi-active concentrations of agonist measured in the presence or absence of the antagonist. Apparent Ke values were calculated using the equation Ke = [L]/((EC50^+/EC50^−) − 1), where [L] is the concentration of test compound, EC50^+ is the EC50 of NPS with test compound, and EC50^– is the EC50 of NPS alone. Ke values were considered valid when the EC50^+/EC50^− ratio was at least 4. HBSS and HEPES were purchased from Gibco (Thermo Scientific); probenecid, BSA, and DMSO were purchased from Sigma-Aldrich.
Compound,Kb [2] [nM],also measured
CCC(C)(CCN1CCOCC1)N(Cc1cc2ccccc2n(C)c1=O)C(=O)C1CCCCC1 (centres unmarked) [A],–,IC50 [1]: 23 nM
COc1ccc2c(c1)C(CC1CCOCC1)(c1ccc(Cl)cc1)n1ccnc1-2 (centres unmarked) [B],–,IC50 [1]: 82 nM
O=C(c1ccccc1N1Cn2c(ccc2-c2ccccc2)C1=O)N1CCCCC1 [C],–,IC50 [1]: 10 nM
"O=C1OC(c2ccccc2)(c2ccccc2)C2=C1CCN(C(=O)NCc1ccccc1)C2 [Compound 1, N-Benzyl-1-oxo-3,3-diphenyl-1H,3H,4H,5H,6H,7H-furo[3,4-c]pyridine-5-carboxamide]",522,Loss of antagonist activity compared to SHA [2]: roughly 50 fold
"CCCCNC(=O)N1CCC2=C(C1)C(c1ccccc1)(c1ccccc1)OC2=O [Compound 2, N-Butyl-1-oxo-3,3-diphenyl-1H,3H,4H,5H,6H,7H-furo[3,4-c]pyridine-5-carboxamide]",515,Loss of antagonist activity compared to SHA [2]: roughly 50 fold
"O=C1OC(c2ccccc2)(c2ccccc2)[C@H]2CN(C(=O)NCc3ccccc3)CC[C@@H]12 [Compound 3, (3,7)-N-Benzyl-1-oxo-3,3-diphenyl-octahydrofuro[3,4-c]pyridine-5-carboxamide]",761,NPSR antagonist activity in words [2]: lacked antagonist activity
"CCCCNC(=O)N1CC[C@H]2C(=O)OC(c3ccccc3)(c3ccccc3)[C@H]2C1 [Compound 4, (3,7)-N-Butyl-1-oxo-3,3-diphenyl-octahydrofuro[3,4-c]pyridine-5-carboxamide]",–,NPSR antagonist activity in words [2]: lacked antagonist activity
"O=C1OC(c2ccccc2)(c2ccccc2)[C@@H]2CN(C(=O)NCc3ccccc3)CC[C@@H]12 [Compound 5, (3,7)-N-Benzyl-1-oxo-3,3-diphenyl-octahydrofuro[3,4-c]pyridine-5-carboxamide]",170,–
"CCCCNC(=O)N1CC[C@H]2C(=O)OC(c3ccccc3)(c3ccccc3)[C@@H]2C1 [Compound 6, (3,7)-N-Butyl-1-oxo-3,3-diphenyl-octahydrofuro[3,4-c]pyridine-5-carboxamide]",260,–
"O=C1OC(c2ccccc2)(c2ccccc2)C2=C1CN(C(=O)NCc1ccccc1)CC2 [Compound 7, N-Benzyl-3-oxo-1,1-diphenyl-1H,3H,4H,5H,6H,7H-furo[3,4-c]pyridine-5-carboxamide]",1130,NPSR antagonist activity in words [2]: significant loss of potency
"O=C1OC2(C3=C1CCN(C(=O)NCc1ccccc1)C3)c1ccccc1CCc1ccccc12 [Compound 9, N-Benzyl-3-oxo-4,5,6,7-tetrahydro-3H-spiro[furo[3,4-c]pyridine-1,2′-tricyclo[9.4.0.0^{3,8}]pentadecane]-1′(11′),3′,5′,7′,12′,14′-hexaene-6-carboxamide]",1660,–
"CCCCC1(c2ccccc2)OC(=O)C2=C1CN(C(=O)NCc1ccccc1)CC2 (centres unmarked) [Compound 11, N-Benzyl-3-butyl-1-oxo-3-phenyl-1H,3H,4H,5H,6H,7H-furo[3,4-c]pyridine-5-carboxamide]",165,–
"O=C1OC(Cc2ccccc2)(c2ccccc2)C2=C1CCN(C(=O)NCc1ccccc1)C2 (centres unmarked) [Compound 12, N-3-Dibenzyl-1-oxo-3-phenyl-1H,3H,4H,5H,6H,7H-furo[3,4-c]pyridine-5-carboxamide]",606,–
"CC(C)(C)CC1(c2ccccc2)OC(=O)C2=C1CN(C(=O)NCc1ccccc1)CC2 (centres unmarked) [Compound 13, N-Benzyl-3-(2,2-dimethylpropyl)-1-oxo-3-phenyl-1H,3H,4H,5H,6H,7H-furo[3,4-c]pyridine-5-carboxamide]",146,–
"CC(C)CC1(c2ccccc2)OC(=O)C2=C1CN(C(=O)NCc1ccccc1)CC2 (centres unmarked) [Compound 14, N-Benzyl-3-(2-methylpropyl)-1-oxo-3-phenyl-1H,3H,4H,5H,6H,7H-furo[3,4-c]pyridine-5-carboxamide]",118,–
"CC(C)CC1(c2ccccc2)OC(=O)C2=C1CN(C(=O)NCc1ccccc1)CC2 (centres unmarked) [Compound 14a, N-Benzyl-3-(2-methylpropyl)-1-oxo-3-phenyl-1H,3H,4H,5H,6H,7H-furo[3,4-c]pyridine-5-carboxamide]",432,–
"CC(C)CC1(CC(C)C)OC(=O)C2=C1CN(C(=O)NCc1ccccc1)CC2 [Compound 16, N-Benzyl-3,3-bis(2-methylpropyl)-1-oxo-1H,3H,4H,5H,6H,7H-furo[3,4-c]pyridine-5-carboxamide]",734,–
"CC(C)CC1(c2ccc3ccccc3c2)OC(=O)C2=C1CN(C(=O)NCc1ccccc1)CC2 (centres unmarked) [Compound 22, N-Benzyl-3-(2-methylpropyl)-3-(naphthalen-2-yl)-1-oxo-1H,3H,4H,5H,6H,7H-furo[3,4-c]pyridine-5-carboxamide]",500,–
"CC(C)CC1(c2ccccc2O)OC(=O)C2=C1CN(C(=O)NCc1ccccc1)CC2 (centres unmarked) [Compound 23, N-Benzyl-3-(2-hydroxyphenyl)-3-(2-methylpropyl)-1-oxo-1H,3H,4H,5H,6H,7H-furo[3,4-c]pyridine-5-carboxamide]",1500,–
"CC(C)CC1(c2ccccc2OCc2ccccc2)OC(=O)C2=C1CN(C(=O)NCc1ccccc1)CC2 (centres unmarked) [Compound 24, N-Benzyl-3-[2-(benzyloxy)phenyl]-3-(2-methylpropyl)-1-oxo-1H,3H,4H,5H,6H,7H-furo[3,4-c]pyridine-5-carboxamide]",572,–
"CC(C)CC1(c2cccc(Cl)c2)OC(=O)C2=C1CN(C(=O)NCc1ccccc1)CC2 (centres unmarked) [Compound 25, N-Benzyl-3-(3-chlorophenyl)-3-(2-methylpropyl)-1-oxo-1H,3H,4H,5H,6H,7H-furo[3,4-c]pyridine-5-carboxamide]",136,–
"CCCCNC(=O)N1CCC2=C(C1)C(CC(C)C)(c1ccccc1)OC2=O (centres unmarked) [Compound 26, N-Butyl-3-(2-methylpropyl)-1-oxo-3-phenyl-1H,3H,4H,5H,6H,7H-furo[3,4-c]pyridine-5-carboxamide]",238,NPSR antagonist activity in words [2]: reduction in potency
"CC(C)CC1(c2ccccc2)OC(=O)C2=C1CN(C(=O)NCCN1CCCCC1)CC2 (centres unmarked) [Compound 27, 3-(2-Methylpropyl)-1-oxo-3-phenyl-N-[2-(piperidin-1-yl)Ethyl]-1H,3H,4H,5H,6H,7H-furo[3,4-c]pyridine-5-carboxamide]",566,NPSR antagonist activity in words [2]: reduction in potency
"CC(C)CC1(c2ccccc2)OC(=O)C2=C1CN(C(=S)NCCN1CCCCC1)CC2 (centres unmarked) [Compound 28, 3-(2-Methylpropyl)-1-oxo-3-phenyl-N-[2-(piperidin-1-yl)ethyl]-1H,3H,4H,5H,6H,7H-furo[3,4-c]pyridine-5-carbothioamide]",386,NPSR antagonist activity in words [2]: reduction in potency
"CC(C)CC1(c2ccccc2)OC(=O)N2CCN(C(=O)NCc3ccccc3)CC21 (centres unmarked) [Compound 29, N-Benzyl-3-(2-methylpropyl)-1-oxo-3-phenyl-hexahydro-1H-[1,3]oxazolo[3,4-a]piperazine-5-carboxamide]",–,NPSR antagonist activity in words [2]: completely inactive
Cc1c(P(=S)(c2ccccc2)c2ccccc2)n2ccccc2[n+]1C/C=C/c1ccccc1 [D],–,IC50 [1]: 9.6 nM
O=C(NCCN1CCCCC1)N1CCN2C(=O)OC(c3ccccc3)(c3ccccc3)[C@H]2C1 [RTI-118],–,Ke [1]: 36 nM
O=C(NCc1ccccc1)N1CCN2C(=O)OC(c3ccccc3)(c3ccccc3)C2C1 (centres unmarked) [SHA-66],–,Ke [1]: 10 nM
